Drawing on PMC11774906, “Volume-regulated anion channels conduct ATP in undifferentiated mammary cells and promote tumorigenesis in xenograft nude mouse” (Frontiers in Cell and Developmental Biology, 2025), this text covers IC50 for one compound.

For this assay, the target named is T1, volume-regulated anion channels (VRACs); LRRC8A-containing hexamer (Homo sapiens, UniProt Q8IWT6).
T1 construct: native channel in intact MCF10A cells; LRRC8 heterohexamer of undefined subunit composition, LRRC8A essential; A, C, D prominently expressed, B and E minimal
T1 sequence (Q8IWT6 1-810): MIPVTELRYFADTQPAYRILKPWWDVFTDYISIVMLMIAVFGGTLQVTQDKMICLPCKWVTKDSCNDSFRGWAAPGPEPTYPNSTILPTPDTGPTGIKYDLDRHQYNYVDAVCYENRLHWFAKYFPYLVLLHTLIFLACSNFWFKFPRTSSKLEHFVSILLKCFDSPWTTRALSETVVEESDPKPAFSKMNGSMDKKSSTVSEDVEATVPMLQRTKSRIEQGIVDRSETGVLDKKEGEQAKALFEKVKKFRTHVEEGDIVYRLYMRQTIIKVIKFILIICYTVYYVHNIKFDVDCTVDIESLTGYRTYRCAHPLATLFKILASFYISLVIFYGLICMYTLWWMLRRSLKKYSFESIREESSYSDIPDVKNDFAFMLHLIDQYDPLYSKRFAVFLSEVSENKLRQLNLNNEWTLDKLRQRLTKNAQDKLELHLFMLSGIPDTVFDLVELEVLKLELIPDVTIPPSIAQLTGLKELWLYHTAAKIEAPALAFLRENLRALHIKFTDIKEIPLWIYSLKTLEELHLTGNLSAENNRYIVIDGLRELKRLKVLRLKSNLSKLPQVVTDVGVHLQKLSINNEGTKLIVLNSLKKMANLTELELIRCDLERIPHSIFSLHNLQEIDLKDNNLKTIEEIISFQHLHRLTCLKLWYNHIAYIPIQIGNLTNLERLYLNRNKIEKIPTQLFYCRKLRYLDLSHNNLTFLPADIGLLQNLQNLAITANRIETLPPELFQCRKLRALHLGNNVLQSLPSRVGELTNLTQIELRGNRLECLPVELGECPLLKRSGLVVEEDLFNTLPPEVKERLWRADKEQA
T1 sequence (Q8TDW0 1-803 partner): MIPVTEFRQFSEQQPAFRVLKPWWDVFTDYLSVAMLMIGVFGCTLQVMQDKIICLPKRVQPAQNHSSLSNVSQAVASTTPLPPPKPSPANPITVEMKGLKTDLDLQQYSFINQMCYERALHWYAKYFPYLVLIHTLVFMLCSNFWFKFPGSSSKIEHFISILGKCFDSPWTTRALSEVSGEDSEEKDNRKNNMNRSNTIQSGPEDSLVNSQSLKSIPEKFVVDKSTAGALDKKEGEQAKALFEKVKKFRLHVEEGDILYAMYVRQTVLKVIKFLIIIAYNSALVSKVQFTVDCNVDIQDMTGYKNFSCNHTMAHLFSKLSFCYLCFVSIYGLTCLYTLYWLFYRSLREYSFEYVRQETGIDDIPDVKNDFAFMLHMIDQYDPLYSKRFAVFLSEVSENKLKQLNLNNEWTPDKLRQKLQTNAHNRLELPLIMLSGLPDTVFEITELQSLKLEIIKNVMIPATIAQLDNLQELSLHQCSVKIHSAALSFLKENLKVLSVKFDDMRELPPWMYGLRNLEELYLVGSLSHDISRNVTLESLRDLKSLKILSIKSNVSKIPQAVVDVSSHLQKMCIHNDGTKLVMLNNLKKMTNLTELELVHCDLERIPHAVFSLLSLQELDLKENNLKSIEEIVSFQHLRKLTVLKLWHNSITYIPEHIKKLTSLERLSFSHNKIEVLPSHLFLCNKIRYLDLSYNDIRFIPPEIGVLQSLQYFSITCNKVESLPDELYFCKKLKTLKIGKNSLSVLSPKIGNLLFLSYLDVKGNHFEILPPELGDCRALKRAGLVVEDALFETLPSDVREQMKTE
T1 sequence (Q7L1W4 1-858 partner): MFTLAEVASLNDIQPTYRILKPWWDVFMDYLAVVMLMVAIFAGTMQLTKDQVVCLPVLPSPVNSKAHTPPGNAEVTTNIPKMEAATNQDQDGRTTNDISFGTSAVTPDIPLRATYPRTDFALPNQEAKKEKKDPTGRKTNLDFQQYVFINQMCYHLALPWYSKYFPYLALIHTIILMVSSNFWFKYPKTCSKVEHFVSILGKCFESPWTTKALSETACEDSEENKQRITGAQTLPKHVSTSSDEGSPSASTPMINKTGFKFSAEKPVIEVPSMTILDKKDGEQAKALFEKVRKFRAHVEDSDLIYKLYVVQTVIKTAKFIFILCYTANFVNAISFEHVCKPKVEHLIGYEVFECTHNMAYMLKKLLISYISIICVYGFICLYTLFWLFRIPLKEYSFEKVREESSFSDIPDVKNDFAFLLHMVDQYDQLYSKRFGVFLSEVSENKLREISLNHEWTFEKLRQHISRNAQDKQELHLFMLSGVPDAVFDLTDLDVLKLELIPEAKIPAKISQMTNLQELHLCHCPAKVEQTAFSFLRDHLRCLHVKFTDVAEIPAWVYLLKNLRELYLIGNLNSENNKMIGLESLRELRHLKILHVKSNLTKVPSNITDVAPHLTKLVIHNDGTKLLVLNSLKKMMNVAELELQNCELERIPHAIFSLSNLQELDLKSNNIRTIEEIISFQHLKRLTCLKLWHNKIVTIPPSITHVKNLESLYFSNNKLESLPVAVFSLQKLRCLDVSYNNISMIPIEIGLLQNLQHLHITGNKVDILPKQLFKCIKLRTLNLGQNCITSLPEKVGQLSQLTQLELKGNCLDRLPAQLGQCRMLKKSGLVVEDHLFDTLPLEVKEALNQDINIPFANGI
The assay is described as follows: luciferin-luciferase imaging of hypotonic diffuse ATP release in MCF10A cells. In kind it is cell-based. Particulars: 50% hypotonic stress; pH 7.4, 30 °C; decay of ATP signal after DCPIB, exponential fit; indirect read-out (ATP release).

As for `CCCCC1(C2CCCC2)Cc2cc(OCCCC(=O)O)c(Cl)c(Cl)c2C1=O` (stereo not shown) [DCPIB, 4-[(2-Butyl-6,7-dichloro-2-cyclopentyl-2,3-dihydro-1-oxo-1H-inden-5-yl)oxy] butanoic acid], the IC50 stood at 38.5 µM.
